Reference: publication PMC8228600, “Design, Synthesis, In Vitro and In Vivo Evaluation of Heterobivalent SiFAlin-Modified Peptidic Radioligands Targeting Both Integrin αvβ3 and the MC1 Receptor—Suitable for the Specific Visualization of Melanomas?” (Pharmaceuticals, 2021)
Read-outs that look alike come from different tables or passages of the source.

Key:
[1] = logD(7.4) determination (n-octanol / phosphate buffer distribution); type: physicochemical; settings: n-octanol / 0.05 M phosphate buffer pH 7.4; mean ± SD
Protocol: Since high lipophilicity of peptidic radiotracers can lead to a high plasma protein binding, resulting in unspecific organ and high liver uptakes, thus negatively impact tumor visualization, the lipophilicity of the HBPLs was determined to get an approximate estimation of the in vivo biodistribution behavior of the radioligands. Therefore, the logD(7.4) values of the SiFAlin-modified HBPLs [^18F]1–[^18F]6 were determined via their distribution coefficient between n-octanol and phosphate buffer at pH 7.4.
The radiotracer solutions were first diluted with 0.9% NaCl solution to give a final EtOH concentration of <10%. A total of 5 MBq of the respective radiotracer in solution was added to 1.6 mL of a mixture of n-octanol and 0.05 M phosphate buffer (pH = 7.4) (v/v, 1/1), and the solution was vigorously shaken for 5 min. Subsequently, the phases were separated by centrifugation at 13.4 rpm for 2 min, and 100 μL of organic and aqueous phases were collected. The activity of each sample was measured using a gamma counter. The lipophilicity of each compound was determined in triplicate in three independent experiments.

[2] = Stability of radiotracers in human serum (radio-HPLC); type: in vitro ADME; settings: 37 °C, 120 min, mean ± SD, read-out: Stability: intact radiotracer after 120 min of incubation in human serum
Protocol: In addition to the investigation of the radiotracers’ lipophilicity, their stability in human serum was evaluated in order to determine possible stability issues of the newly developed agents. For this purpose, the respective ^18F-labeled HBPLs were incubated in human serum at 37 °C for 120 min. The results of these experiments are summarized in Table 1, and the corresponding radio-HPLC chromatograms for [^18F]2 as representative examples for all compounds studied are depicted in Figure 3A (see Supplementary Materials, Figure S91 for the results obtained for the other radioligands). In Figure 3B, the portions of intact radiotracer over the course of the stability experiments are depicted.
The radiotracer solutions were first diluted with 0.9% NaCl solution to give a final EtOH concentration of <10%. Then, 6 × 25 μL radiotracer solution was added to 6 × 100 μL human serum and incubated at 37°C for 120 min. At defined time points (5, 15, 30, 60, 90 and 120 min), 125 μL EtOH was added to one of the mixtures and the precipitation of serum proteins was supported by ice-cooling for 2 min. After centrifugation at 13.4 rpm for 2 min, the supernatant was analyzed by analytical radio-HPLC (0–100% MeCN + 0.1% TFA in 5 min). The experiment was performed for each compound trice by three independent experiments.

[3] = Ex vivo biodistribution: uptake in B16F10 tumors and tumor-to-organ ratios; design: species or system nude mice (Balb/cAnNRj-Foxn1nu/nu); settings: male, Balb/cAnNRj-Foxn1nu/nu (nude), mouse, iv, total radioactivity; for tissue uptake: B16F10 tumor (MC1R-positive); for tissue uptake / tissue uptake at 1.5 h: ex vivo after PET/CT scan, i.v., n = 3; for tissue to tissue ratio: ex vivo biodistribution, mean (n = 3) ± SD; for tissue uptake at 1.5 h: B16F10 tumor
Protocol: (§1) For the evaluation of the in vivo pharmacokinetics, the two most promising HBPLs—[^18F]2 with the highest affinity to both target receptors and [^18F]4 with the highest hydrophilicity and still reasonable binding affinities—were selected. For PET/CT imaging, 6-week-old male nude mice (Balb/cAnNRj-Foxn1^nu/nu) were subcutaneously injected with 5 × 10^5 B16F10 cells into the right flank and 2.0–2.5 × 10^6 U87MG cells into the left flank to generate the respective receptor-positive tumors. When the tumors reached a sufficient size for imaging, each mouse was administered 4.15 ± 2.28 MBq of [^18F]2 or 3.95 ± 2.06 MBq of [^18F]4 via the lateral tail vein under isoflurane anesthesia. To determine the receptor specificity of both peptide parts of the labeled HBPLs and their relative contribution to overall tumor uptake, blocking experiments were also performed. […] After i.v. injection of the tracers, a dynamic PET scan, followed by a CT scan, was performed. The resulting PET/CT images and time–activity curves (TACs) are depicted in Figure 6, Figure 7 and Figure 8. After completion of the diagnostic scans, the mice were sacrificed, their organs (blood, spleen, liver, kidney, pancreas, lung, heart, brain, bone, muscle, tail, tumors, stomach, colon and small intestine) were collected and measured in a γ-counter for ex vivo biodistribution (see Supplementary Materials Table S1 for detailed results).
(§2) Each male nude mouse (six weeks old) was injected subcutaneously with 5 × 10^5 B16F10 cells into the right flank and 2.0–2.5 × 10^6 U87MG cells into the left flank. The health status and tumor growth of the mice were monitored regularly until the animals could be examined after 15–21 days, depending on the tumor size. For the in vivo experiments, the ^18F-radiolabeled compound was diluted in 0.9% saline to give a final EtOH concentration of <10%. Each mouse was injected with 4.15 ± 2.28 MBq of [^18F]2 or 3.95 ± 2.06 MBq of [^18F]4 via the lateral tail vein under isoflurane anesthesia. […] Each ^18F-labeled compound was studied with or without blocking in at least three mice. Mice were measured under isoflurane anesthesia in a small PET/SPECT/CT animal imaging system. First, a dynamic PET scan was performed over 90 min and the scan was framed in 29 timeframes (10 × 1 min, 10 × 2 min, 6 × 5 min, 3 × 10 min). Images were reconstructed using 12 iterations, a maximum likelihood expectation maximization (MLEM) algorithm including corrections for scattered radiation and decay and a voxel size of 0.5 mm. All PET scans were immediately followed by CT acquisition at a voltage of 45 kV and a current of 400 μA. The images were reconstructed using the filtered back projection (FBP) algorithm with a voxel size of 250 μm. The analysis of the data, including the generation of TACs of the kidneys, liver and tumors and the MIPs, was performed via PMOD (v3.8). For ex vivo biodistribution, the mice were sacrificed directly after the PET/CT scan. Organs (blood, spleen, liver, kidneys, pancreas, lungs, heart, brain, bone, muscle, tail, tumors, stomach, colon and small intestine) were collected, weighed and their radioactivity measured in a γ-counter. The percentage injected dose per gram (% ID/g) of each tissue was calculated from the determined values, organ weights, reference values and injected activity.

[4] = tested on: MC1R-positive B16F10 tumors; experiment: as above; design: species or system nude mice (Balb/cAnNRj-Foxn1nu/nu); settings: NDP blocking (20 μg coinjected); ex vivo after PET/CT scan; i.v.; n = 3
Protocol: as §1, §2

B16F10 and U87MG tumors = experiment: In vivo dynamic PET/CT imaging and time–activity curves; design: species or system nude mice (Balb/cAnNRj-Foxn1nu/nu); settings: for visualization of B16F10 and U87MG tumors by PET/CT: PET/CT scans, MIPs 50–90 min post-injection; for time at which uptakes in kidneys and liver reached their maximum (TACs) / time at which the curves of both tumors approached a plateau (TACs): dynamic PET over 90 min, i.v.; for time at which the curves of both tumors approached a plateau (TACs): B16F10 and U87MG tumors
Protocol: as §1
Briefly, 4–5-week-old male nude mice (Balb/cAnNRj-Foxn1^nu/nu) were obtained from Janvier. A dynamic PET scan over 90 min and a subsequent CT image over 20 min were acquired using a triple-modality Bruker Albira II small-animal PET/CT/SPECT scanner. Three animals were studied per group.
as §2

[5] = NDP blocking (20 μg coinjected)
[6] = c(RGDyK) blocking (200 μg coinjected)
[7] = double blocking (NDP + c(RGDyK))
[8] = B16F10 tumor / blood, without blocking, read-out: tumor/blood ratio, B16F10
[9] = B16F10 tumor / kidneys, without blocking, read-out: tumor/kidneys ratio, B16F10
[10] = B16F10 tumor / liver, without blocking, read-out: tumor/liver ratio, B16F10
[11] = B16F10 tumor / muscle, without blocking, read-out: tumor/muscle ratio, B16F10

CCCC[C@H](NC(=O)CNC(=O)CNC(=O)CCOCCOCCOCCOCCC(=O)NCCCN(CCCNC(=O)CCOCCOCCOCCOCCC(=O)NCCCC[C@@H]1NC(=O)[C@@H](Cc2ccccc2)NC(=O)[C@H](CC(=O)O)NC(=O)CNC(=O)[C@H](CCCNC(=N)N)NC1=O)CC(=O)N[C@@H](CCCCNC(=O)CCC[N+](C)(C)Cc1ccc([Si](F)(C(C)(C)C)C(C)(C)C)cc1)C(N)=O)C(=O)N[C@H]1CC(=O)NCCCC[C@@H](C(N)=O)NC(=O)[C@H](Cc2c[nH]c3ccccc23)NC(=O)[C@H](CCCNC(=N)N)NC(=O)[C@@H](Cc2ccccc2)NC(=O)[C@H](Cc2c[nH]cn2)NC1=O [[^18F]2]
logD [1]: -1.19 ± 0.05 | remaining at 2 h [2]: 85.4 ± 2.8% | tissue uptake [3, 5]: 1.83 ± 0.24 %ID/g | tissue uptake [3, 6]: 1.98 ± 0.18 %ID/g | tissue uptake [3, 7]: 1.14 ± 0.42 %ID/g | tissue uptake ([3]; without blocking): 2.32 ± 0.49 %ID/g | tissue to tissue ratio [3, 8]: 2.42 ± 0.73 | tissue to tissue ratio [3, 9]: 0.19 ± 0.1 | tissue to tissue ratio [3, 10]: 0.16 ± 0.11 | tissue to tissue ratio [3, 11]: 0.68 ± 0.41 | tissue uptake at 1.5 h ([3]; without blocking): 2.32 ± 0.49 %ID/g | ID/g, B16F10 tumor [4]: 1.83 ± 0.24 % ID/g | visualization of B16F10 and U87MG tumors by PET/CT (B16F10 and U87MG tumors): clearly visualize | time at which uptakes in kidneys and liver reached their maximum (TACs) (B16F10 and U87MG tumors): 5 to 10 min | time at which the curves of both tumors approached a plateau (TACs) (B16F10 and U87MG tumors): about 70 min

CCCC[C@H](NC(=O)CNC(=O)CNC(=O)CCOCCOCCOCCOCCOCCOCCOCCOCCOCCC(=O)NCCCN(CCCNC(=O)CCOCCOCCOCCOCCOCCOCCOCCOCCOCCC(=O)NCCCC[C@@H]1NC(=O)[C@@H](Cc2ccccc2)NC(=O)[C@H](CC(=O)O)NC(=O)CNC(=O)[C@H](CCCNC(=N)N)NC1=O)CC(=O)N[C@@H](CCCCNC(=O)CCC[N+](C)(C)Cc1ccc([Si](F)(C(C)(C)C)C(C)(C)C)cc1)C(N)=O)C(=O)N[C@H]1CC(=O)NCCCC[C@@H](C(N)=O)NC(=O)[C@H](Cc2c[nH]c3ccccc23)NC(=O)[C@H](CCCNC(=N)N)NC(=O)[C@@H](Cc2ccccc2)NC(=O)[C@H](Cc2c[nH]cn2)NC1=O [[^18F]4]
logD [1]: -1.39 ± 0.03 | remaining at 2 h [2]: 83.6 ± 0.8% | tissue uptake [3, 5]: 1.33 ± 0.27 %ID/g | tissue uptake [3, 6]: 2.29 ± 0.24 %ID/g | tissue uptake [3, 7]: 2.49 ± 0.09 %ID/g | tissue uptake ([3]; without blocking): 2.58 ± 0.86 %ID/g | tissue to tissue ratio [3, 8]: 4.36 ± 1.37 | tissue to tissue ratio [3, 9]: 0.38 ± 0.24 | tissue to tissue ratio [3, 10]: 0.36 ± 0.23 | tissue to tissue ratio [3, 11]: 38.6 ± 9.24 | tissue uptake at 1.5 h ([3]; without blocking): 2.58 ± 0.86 %ID/g | ID/g, B16F10 tumor [4]: 1.33 ± 0.27 % ID/g | visualization of B16F10 and U87MG tumors by PET/CT (B16F10 and U87MG tumors): clearly visualize | time at which uptakes in kidneys and liver reached their maximum (TACs) (B16F10 and U87MG tumors): 5 to 10 min | time at which the curves of both tumors approached a plateau (TACs) (B16F10 and U87MG tumors): about 70 min
